PubChem BioAssay AID1919017 (Molecular Pharmacology Branch, DTP, NCI, 2023)
pIC50: −log10 of the molar value.

Test system: SW1271 complex spheroids with HUVEC/MSC, growth, % test/control
Assay: Anticancer human tumor SW1271 cell line growth inhibition [AhR];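 further: spheroids exposed to agents for 7 days before readout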
Conditions: for pIC50: curve of first compound; for viability, T/C: stronger effect = lower value
Procedure, shortened: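 Complex tumor spheroids co-cultured with HUVEC and human MSC stroma; AhR antagonists tested in combination with standard-of-care and investigational agents. Top concentration at or near clinical Cmax (else 10 microM), half-log dilutions; growth expressed as percent test/control.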

[1] = second compound 0.1 µM, first compound 0.0316 µM
[2] = second compound 0.1 µM, first compound 0.1 µM
[3] = second compound 0.1 µM, first compound 0.316 µM
[4] = second compound 0.1 µM, first compound 1 µM
[5] = second compound 0.1 µM, first compound 3.16 µM
[6] = second compound 0.1 µM, first compound 10 µM
[7] = second compound 0.316 µM, first compound 0.0316 µM
[8] = second compound 0.316 µM, first compound 0.1 µM
[9] = second compound 0.316 µM, first compound 0.316 µM
[10] = second compound 0.316 µM, first compound 1 µM
[11] = second compound 0.316 µM, first compound 3.16 µM
[12] = second compound 0.316 µM, first compound 10 µM
[13] = second compound 1 µM, first compound 0.0316 µM
[14] = second compound 1 µM, first compound 0.1 µM
[15] = second compound 1 µM, first compound 0.316 µM
[16] = second compound 1 µM, first compound 1 µM
[17] = second compound 1 µM, first compound 3.16 µM
[18] = second compound 1 µM, first compound 10 µM
[19] = second compound 3.16 µM, first compound 0.0316 µM
[20] = second compound 3.16 µM, first compound 0.1 µM
[21] = second compound 3.16 µM, first compound 0.316 µM
[22] = second compound 3.16 µM, first compound 1 µM
[23] = second compound 3.16 µM, first compound 3.16 µM
[24] = second compound 3.16 µM, first compound 10 µM
[25] = second compound 10 µM, first compound 0.0316 µM
[26] = second compound 10 µM, first compound 0.1 µM
[27] = second compound 10 µM, first compound 0.316 µM
[28] = second compound 10 µM, first compound 1 µM
[29] = second compound 10 µM, first compound 3.16 µM
[30] = second compound 10 µM, first compound 10 µM

Row | Structure (SMILES) | pIC50 (second compound 0.1 µM) | pIC50 (second compound 0.316 µM) | pIC50 (second compound 1 µM) | pIC50 (second compound 3.16 µM) | pIC50 (second compound 10 µM) | viability, T/C [1] [%] | viability, T/C [2] [%] | viability, T/C [3] [%] | viability, T/C [4] [%] | viability, T/C [7] [%] | viability, T/C [8] [%] | viability, T/C [9] [%] | viability, T/C [10] [%] | viability, T/C [13] [%] | viability, T/C [14] [%] | viability, T/C [15] [%] | viability, T/C [16] [%] | viability, T/C [19] [%] | viability, T/C [20] [%] | viability, T/C [21] [%] | also measured
1 | CC(C)c1c(-c2ccccc2)nc2c(C#N)c[nH]n2c1=O + Cc1cncc(-c2nc(NCCc3c[nH]c4ccccc34)c3ncn(C(C)C)c3n2)c1 | < 5.00 | < 5.00 | < 5.00 | < 5.00 | 6.33 | 104 | 104 | 96.4 | 111 | 85.2 | 121 | 100 | 96.3 | 89.5 | 111 | 87.6 | 80.2 | 90.1 | 93.7 | 109 | viability, T/C [5]: 102%; viability, T/C [6]: 108%; viability, T/C [11]: 95.9%; viability, T/C [12]: 106%; viability, T/C [17]: 87.7%; viability, T/C [18]: 82.5%; viability, T/C [22]: 91.5%; viability, T/C [23]: 99.2%; viability, T/C [24]: 99.9%; viability, T/C [25]: 53.4%; viability, T/C [26]: 58%; viability, T/C [27]: 48%; viability, T/C [28]: 48.2%; viability, T/C [29]: 44.8%; viability, T/C [30]: 50.4%
2 | CC1COCCN1c1cc(-c2ccnn2C)c2ccnc(-c3ccn[nH]3)c2n1 (stereo not given) + Cc1cncc(-c2nc(NCCc3c[nH]c4ccccc34)c3ncn(C(C)C)c3n2)c1 | 6.38 | 6.60 | 6.19 | 6.13 | > 8.50 | 70.2 | 57.4 | 58 | 39.4 | 70.4 | 62.2 | 48 | 35.1 | 75.3 | 63 | 62 | 44.2 | 72.4 | 70.2 | 61.3 | viability, T/C (second compound 0.1 µM, first compound 0.00316 µM): 79.6%; viability, T/C (second compound 0.1 µM, first compound 0.01 µM): 86.7%; viability, T/C (second compound 0.316 µM, first compound 0.00316 µM): 68%; viability, T/C (second compound 0.316 µM, first compound 0.01 µM): 90.1%; viability, T/C (second compound 1 µM, first compound 0.00316 µM): 89.8%; viability, T/C (second compound 1 µM, first compound 0.01 µM): 88%; viability, T/C (second compound 3.16 µM, first compound 0.00316 µM): 72.2%; viability, T/C (second compound 3.16 µM, first compound 0.01 µM): 85.2%; viability, T/C [22]: 46%; viability, T/C (second compound 10 µM, first compound 0.00316 µM): 30.2%; viability, T/C (second compound 10 µM, first compound 0.01 µM): 35%; viability, T/C [25]: 36.9%; viability, T/C [26]: 36.2%; viability, T/C [27]: 35%; viability, T/C [28]: 24.6%
3 | COc1ccc([C@@H](O)c2cc(-c3ncnc4cc(N5CCOCC5)ccc34)c(F)cc2Cl)nn1 + Cc1cncc(-c2nc(NCCc3c[nH]c4ccccc34)c3ncn(C(C)C)c3n2)c1 | 5.73 | 5.41 | 5.54 | 5.30 | > 7.50 | 82.7 | 93.6 | 83.2 | 56.7 | 87.3 | 96.7 | 75.1 | 72.7 | 91.3 | 87.3 | 93.3 | 68.2 | 81.6 | 99 | 81.9 | viability, T/C [5]: 47.9%; viability, T/C [6]: 36.7%; viability, T/C [11]: 52.2%; viability, T/C [12]: 36.9%; viability, T/C [17]: 50.8%; viability, T/C [18]: 36.3%; viability, T/C [22]: 70.1%; viability, T/C [23]: 55.8%; viability, T/C [24]: 43.2%; viability, T/C [25]: 45.5%; viability, T/C [26]: 43.3%; viability, T/C [27]: 41.5%; viability, T/C [28]: 36%; viability, T/C [29]: 22.1%; viability, T/C [30]: 18.1%
